Values joined by “and” are separate entries in the source; they are usually repeats but may differ in a detail not shown here. Equal values may be shown once.
Columns and labels:
Assay type in all cases: functional, Homo sapiens
Design in all cases: dose or concentration left out as unconfirmed
Colon cancer organoid [1] = test: Image-based profiling of donated chemical probes and chemogenomic kinase set in O21 CRC organoid. Image analysis is performed on the sum area metric, and the data were normalized to the DMSO control. After imaging the organoid viability is measured using the OneGloEX Luciferase Assay System. The normalized viability data and sum area are reported.
Colon cancer organoid [2] = test: Image-based profiling of donated chemical probes and chemogenomic kinase set in O09 CRC organoid. Image analysis is performed on the sum area metric, and the data were normalized to the DMSO control. After imaging the organoid viability is measured using the OneGloEX Luciferase Assay System. The normalized viability data and sum area are reported.
Colon cancer organoid [3] = test: Image-based profiling of donated chemical probes and chemogenomic kinase set in O06 CRC organoid. Image analysis is performed on the sum area metric, and the data were normalized to the DMSO control. After imaging the organoid viability is measured using the OneGloEX Luciferase Assay System. The normalized viability data and sum area are reported.

| Compound | Cell Viability (Colon cancer organoid [1]; Replication number 1) | Cell Viability (Colon cancer organoid [1]; Replication number 2) | Cell Viability (Colon cancer organoid [2]; Replication number 1) | Cell Viability (Colon cancer organoid [2]; Replication number 2) | Cell Viability (Colon cancer organoid [3]; Replication number 1) | Cell Viability (Colon cancer organoid [3]; Replication number 2) |
| --- | --- | --- | --- | --- | --- | --- |
| CCC(=O)N1CCN(c2ccc(-n3c(=O)ccc4cnc5ccc(-c6cnc7ccccc7c6)cc5c43)cc2C(F)(F)F)CC1 [TORIN1] | 35.688% and 65.784% | 42.752% and 81.756% | 18.1039% and 19.199% | 16.4682% and 14.0105% | 3.399% and 11.5065% |  |
| CO[C@@H](C)c1c(Nc2ccc([C@@H](N(C)C(=O)C3CCS(=O)(=O)CC3)C(F)(F)F)cc2)cnc2cc(Cl)nn12 [NVS-MALT1-C] | 68.6015% and 94.398% | 97.4598% and 109.109% | 63.1352% and 96.7863% | 75.29% and 89.0167% | 48.3396% and 100.567% | 78.0608% and 112.446% |
| CN(C(=O)c1cnn2cccnc12)c1cc2c(cc1N1CCOCC1)C(=O)N(C[C@@H](F)C(C)(C)O)C2 | 91.4071% and 91.6697% | 87.4763% and 99.932% | 67.6561% and 89.4711% | 97.2316% and 93.7748% | 66.1312% and 81.8624% | 88.8257% and 96.1076% |
| O=C(/C=C/N1C[C@H]2C[C@@H]1CN2c1ccccn1)c1ccccc1O | 136.807% and 131.679% | 93.5448% and 99.3437% | 108.639% and 102.241% | 93.5613% and 97.7827% | 142.277% and 136.268% | 180.564% and 107.78% |
| CC(C)(O)CNc1ncc(-c2ccnc(Nc3ccnc(Cl)c3)n2)c(CC2CC2)n1 | 40.3035% and 73.5889% | 46.8315% and 88.665% | 50.3707% and 42.8861% | 72.1392% and 56.6897% | 43.9028% and 71.665% | 60.8585% and 108.175% |
| Cn1c(-c2csc(C3CCN(CC4=NC5N=CC=CC5N4)CC3)n2)nc2ccccc21 (stereo not given) [BAY-070] | 109.219% and 99.8545% | 106.656% and 102.481% | 60.3085% and 58.8971% | 70.2327% and 76.9231% | 51.6449% and 96.9231% | 54.618% and 76.4056% |
| CCNC(=O)c1cc2c(-c3cc(C(C)(C)O)ccc3Oc3c(C)cc(F)cc3C)cn(C)c(=O)c2[nH]1 [ABBV-744] | 105.916% and 106.401% | 102.084% and 111.158% | 57.6147% and 40.8037% | 73.5027% and 48.4637% | 111.05% and 99.302% | 81.1787% and 70.2602% |
| CCCc1cc(C)[nH]c(=O)c1CNC(=O)c1cc(-c2ccc(N3CCN(C(C)C)CC3)nc2)cc2c1cnn2C(C)C | 90.7936% and 81.7113% | 90.0059% and 120.286% | 144.261% and 110.819% | 125.635% and 91.796% | 117.017% and 105.342% | 150.35% and 108.975% |
| O=C1c2ccc(Nc3ccc(F)cc3F)cc2CCc2ccc(OC[C@H](O)CO)cc21 [Skepinone-L] | 124.274% and 139.142% | 112.785% and 100.442% | 97.726% and 98.0993% | 77.28% and 97.9381% | 90.1352% and 107.854% | 111.788% and 116.531% |
| CNC(=O)c1ccccc1Nc1cc(Nc2ccc(N3CCOCC3)cc2OC)ncc1C(F)(F)F [VS-4718] | 46.4172% and 62.2044% | 35.2448% and 60.1632% | 16.1966% and 32.4497% | 15.3454% and 34.2982% | 26.6369% and 55.3846% | 24.9671% and 46.6122% |
| Cn1cc(-c2ccc3occ(-c4ccccc4-c4ccccc4)c3n2)cn1 | 120.62% and 121.278% | 112.27% and 102.009% | 118.722% and 95.2756% | 122.009% and 96.5129% | 113.014% and 144.526% | 79.1768% and 87.7674% |
| CCOC(=O)Nc1cc(-c2ccc(C)c(NS(C)(=O)=O)c2)nn2c(C)nnc12 | 101.464% and 109.34% | 124.525% and 131.026% | 56.4078% and 39.4127% | 74.2439% and 53.3101% | 97.2241% and 83.1141% | 52.6014% and 56.6383% |
| CC1=CC(C)=[N+]2C1=C(CCCCc1cn(CC(=O)N3CCc4nc(NC(=O)[C@H]5CCN(C#N)C5)sc4C3)nn1)c1c(C)cc(C)n1[B-]2(F)F | 110.953% and 108.585% | 96.9264% and 89.225% | 63.7608% and 86.8451% | 67.8399% and 91.9905% | 105.892% and 120.972% | 115.912% and 117.492% |
| CCOc1ccn(-c2ccc(F)cc2)c(=O)c1C(=O)Nc1ccc(Oc2ccnc(N)c2Cl)c(F)c1 [BMS-777607] | 134.256% and 110.941% | 106.617% and 115.725% | 102.993% and 102.228% | 97.5395% and 82.0651% | 96.7201% and 108.61% | 116.766% and 115.578% |
| O=C(NNS(=O)(=O)c1ccccc1F)c1cc(F)cc(-c2ccccn2)c1 [WM-1119] | 82.8466% and 99.3088% | 81.4128% and 90.2447% | 133.421% and 96.9739% | 39.4001% and 91.3957% | 59.5797% and 94.7368% | 61.7919% and 84.5747% |
| CN(C)[C@H]1CN(C2CCc3cccc(F)c32)C[C@@H]1c1ccc(N2CCN(S(C)(=O)=O)CC2)cc1 (stereo not given in full) | 78.9326% and 94.0562% | 85.3871% and 90.7518% | 201.275% and 108.733% | 175.885% and 109.186% | 159.825% and 136.993% | 128.982% and 128.571% |

Reference: ChEMBL document CHEMBL5724558, “Image-based profiling of drug vulnerabilities in CRC organoids” (2024)
